Laboratory results taken from PMC5972519 (Journal of pharmaceutical and biomedical analysis, 2016).

How the values were obtained:
[1] = Plasma pharmacokinetics of; format: in vivo, Wistar rat; conditions: for concentration at 30 min / concentration at 40 min: male, Wistar, rat, ip; for concentration at 30 min / concentration at 40 min / t1/2 / Cmax / Tmax: plasma; for t1/2 Ratio (A/C): Acute Arm t1/2 / Chronic Arm t1/2 (fold reduction by 14-day dosing); for Plasma concentration Ratio (C/A): Chronic Arm / Acute Arm; for Plasma concentration at 30 min after ip administration: Acute Arm, single ip 40 mg/kg (R,S)-Ket
[2] = Partitioning between whole blood and plasma; format: in vitro ADME; conditions: mouse whole blood, spiked 10, 1 and 0.1 μM, 30 min at 37°C
[3] = Acute: single ip 40 mg/kg (R,S)-Ket
[4] = Acute: single ip 40 mg/kg (R,S)-Ket, 40 mg/kg
[5] = Sub-chronic: Day 14 of ip 40 mg/kg (R,S)-Ket once per day for 14 days

In the case of `NC1(c2ccccc2Cl)CCC=CC1=O` (racemic) [(R,S)-DHNK, (R,S)-dehydronorketamie], the “Plasma concentration at any sampling time” value ([1]; after ip 40 mg/kg (R,S)-Ket, both arms) is reported as ≤ 10 ng/mL and the “Share of compound found in the plasma fraction after incubation with whole blood” value [2] is reported as < 20%.
For `CNC1(c2ccccc2Cl)CCCCC1=O` (racemic) [(R,S)-Ket, (R,S)-Ketamine, reference compound], the “Plasma concentration between 5 min and 60 min post-administration” value [1, 3] was > 1,000 ng/ml, the concentration at 30 min ([1]; 40 mg/kg) was 2780 ng/mL and the concentration at 40 min ([1]; 40 mg/kg) was 2600 ng/mL. For the same compound, the “Share of compound found in the plasma fraction after incubation with whole blood” value [2] was > 90%.
For `NC1(c2ccccc2Cl)CCCCC1=O` (racemic) [(R,S)-norKet, (R,S)-norketamine], the “Fold reduction of relative plasma concentration by subchronic dosing” value ([1]; 30 min post dosing, subchronic versus acute) was 1.6 fold, the “t1/2 Ratio (A/C)” value [1] was 1.4 and the “Plasma concentration between 5 min and 60 min post-administration” value [1, 3] was > 1,000 ng/ml. For the same compound, the “Plasma concentration Ratio (C/A)” value ([1]; 30 min post dosing) was 0.62, the concentration at 30 min ([1]; 40 mg/kg) was 2130 ng/mL and the concentration at 40 min ([1]; 40 mg/kg) was 1340 ng/mL. For the same compound, the “Share of compound found in the plasma fraction after incubation with whole blood” value [2] was > 90%.
In the case of `NC1(c2ccccc2Cl)CC(O)CCC1=O` [(2S,4R;2R,4S)-HNK, (2S,4R;2R,4S)-hydroxynorketamine], the “Plasma concentration at 30 min after ip administration” value (“Plasma concentration at 30 min” for short) [1] is reported as 218 ng/mL, the “Plasma concentration between 5 min and 60 min post-administration” value [1, 3] is reported as > 50 ng/mL and the “Plasma concentration at 10 min post-dosing” value [1, 4] is reported as 257 ± 195 ng/mL. For the same compound, the “Plasma concentration Ratio (C/A)” value ([1]; 30 min post dosing) was 1.7, the “Plasma concentration Ratio (C/A)” value ([1]; 30 min post dosing, listed as (2S,4R,2R,4S)-HNK) was 1.73 and the t1/2 [1, 5] was 5.0 h.
For `NC1(c2ccccc2Cl)CC(O)CCC1=O` [(2S,4S;2R,4R)-HNK], the “Plasma concentration between 5 min and 60 min post-administration” value [1, 3] was > 50 ng/mL and the “Plasma concentration at 10 min post-dosing” value [1, 4] was 196 ± 132 ng/mL.
For `NC1(c2ccccc2Cl)CCC(O)CC1=O` [(2S,5S;2R,5R)-HNK], the “Plasma concentration at 10 min post-dosing” value [1, 3] was 181 ± 141 ng/mL and the “Plasma concentration between 5 min and 60 min post-administration” value [1, 3] was > 50 ng/mL.
In the case of `NC1(c2ccccc2Cl)CCCC(O)C1=O` [(2S,6R;2R,6S)-HNK, (2S,6R;2R,6S)-hydroxynorketamine], the “Plasma concentration at 30 min” value [1] is reported as 172 ng/mL, the “Plasma concentration at 10 min post-dosing” value [1, 3] is reported as 252 ± 81 ng/mL and the “Plasma concentration between 5 min and 60 min post-administration” value [1, 3] is reported as > 50 ng/mL. For the same compound, the “Plasma concentration Ratio (C/A)” value ([1]; 30 min post dosing) was 4.5, the “Plasma concentration Ratio (C/A)” value ([1]; 30 min post dosing, listed as (2S,6R,2R,6S)-HNK) was 4.53 and the Cmax [1, 5] was 2101 ng/mL. It also gave a t1/2 [1, 5] of 1.3 h.
With `N[C@@]1(c2ccccc2Cl)CCC[C@@H](O)C1=O` [(2S,6S;2R,6R)-HNK, (2S,6S;2R,6R)-hydroxynorketamine] the “t1/2 Ratio (A/C)” value [1] was 1.2, the “Plasma concentration at 30 min” value [1] was 4327 ng/mL and the “Plasma concentration between 5 min and 60 min post-administration” value [1, 3] was > 1,000 ng/ml. For the same compound, the Cmax [1, 3] was 4641 ± 2020 ng/mL, the Tmax [1, 3] was 0.61 ± 0.35 h and the t1/2 ([1]; Acute: single ip 40 mg/kg (R,S)-Ket, male Wistar rats) was 13.2 ± 3.7 h. For the same compound, the “Plasma concentration Ratio (C/A)” value ([1]; 30 min post dosing) was 1.4, the “Plasma concentration Ratio (C/A)” value ([1]; 30 min post dosing, listed as (2S,6S,2R,6R)-HNK) was 1.42 and the “Plasma concentration at 72 hr post-administration” value ([1]; Sub-chronic, Day 14 dose) was 15 ± 7 ng/mL. The Cmax [1, 5] was 6491 ± 3008 ng/mL, the Tmax [1, 5] was 0.78 ± 0.19 h and the t1/2 [1, 5] was 11.1 ± 1.8 h.
